{"source": "ChEMBL document CHEMBL4190187", "about": "“Discovery of pyrazolopyrimidine derivatives as novel inhibitors of ataxia telangiectasia and rad3 related protein (ATR)” (Bioorg Med Chem Lett, 2017)", "key": {"[1]": {"tested_on": "Ribosomal protein S6 kinase beta-1 (Homo sapiens), P23443 [T412E]", "test": "Inhibition of recombinant human p70S6K T412E mutant (1 to 421 residues) at 1 uM using KKRNRTLTV as substrate after 40 mins in presence of [gamma-33P]ATP by scintillation counting method"}, "[2]": {"target": "Serine/threonine-protein kinase ICK (Homo sapiens) (UniProt Q9UPZ9)", "test": "Inhibition of recombinant human ICK (1 to 312 residues) at 1 uM using RRRFRPASPLRGPPK as substrate after 120 mins in presence of [gamma-33P]ATP by scintillation counting method"}, "[3]": {"tested_on": "Serine/threonine-protein kinase B-raf (Homo sapiens), P15056 [V600E]", "sequence (P15056 whole entry V600E)": "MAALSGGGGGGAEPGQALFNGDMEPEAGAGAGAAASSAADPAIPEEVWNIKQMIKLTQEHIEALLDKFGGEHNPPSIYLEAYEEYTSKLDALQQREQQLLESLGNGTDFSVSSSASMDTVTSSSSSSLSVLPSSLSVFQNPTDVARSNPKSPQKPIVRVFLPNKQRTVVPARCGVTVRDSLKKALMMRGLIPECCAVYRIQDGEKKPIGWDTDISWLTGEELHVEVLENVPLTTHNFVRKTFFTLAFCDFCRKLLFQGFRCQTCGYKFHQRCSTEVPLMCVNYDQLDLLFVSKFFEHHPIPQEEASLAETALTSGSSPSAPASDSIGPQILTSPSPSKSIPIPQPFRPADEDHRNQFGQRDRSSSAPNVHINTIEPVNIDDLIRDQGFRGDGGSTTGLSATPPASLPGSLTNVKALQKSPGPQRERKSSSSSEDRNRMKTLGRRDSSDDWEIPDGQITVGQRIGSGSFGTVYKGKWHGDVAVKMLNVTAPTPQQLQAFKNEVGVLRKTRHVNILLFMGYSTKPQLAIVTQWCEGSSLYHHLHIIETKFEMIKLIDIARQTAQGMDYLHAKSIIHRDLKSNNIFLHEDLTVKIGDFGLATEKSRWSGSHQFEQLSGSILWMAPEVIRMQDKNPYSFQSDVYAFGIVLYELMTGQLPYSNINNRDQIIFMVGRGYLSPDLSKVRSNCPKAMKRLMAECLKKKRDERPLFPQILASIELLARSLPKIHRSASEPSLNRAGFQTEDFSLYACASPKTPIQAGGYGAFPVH", "test": "Inhibition of recombinant human B-raf V599E mutant (416 to end residues) at 1 uM using myelin basic protein as substrate after 40 mins in presence of [gamma-33P]ATP by scintillation counting method"}, "[4]": {"target": "Serine/threonine-protein kinase Sgk1 (Homo sapiens) (UniProt O00141)", "test": "Inhibition of recombinant human SGK (60 to end residues) at 1 uM using GRPRTSSFAEGKK as substrate after 40 mins in presence of [gamma-33P]ATP by scintillation counting method"}, "[5]": {"target": "Wee1-like protein kinase (Homo sapiens) (UniProt P30291)", "sequence (P30291 whole entry, looked up)": "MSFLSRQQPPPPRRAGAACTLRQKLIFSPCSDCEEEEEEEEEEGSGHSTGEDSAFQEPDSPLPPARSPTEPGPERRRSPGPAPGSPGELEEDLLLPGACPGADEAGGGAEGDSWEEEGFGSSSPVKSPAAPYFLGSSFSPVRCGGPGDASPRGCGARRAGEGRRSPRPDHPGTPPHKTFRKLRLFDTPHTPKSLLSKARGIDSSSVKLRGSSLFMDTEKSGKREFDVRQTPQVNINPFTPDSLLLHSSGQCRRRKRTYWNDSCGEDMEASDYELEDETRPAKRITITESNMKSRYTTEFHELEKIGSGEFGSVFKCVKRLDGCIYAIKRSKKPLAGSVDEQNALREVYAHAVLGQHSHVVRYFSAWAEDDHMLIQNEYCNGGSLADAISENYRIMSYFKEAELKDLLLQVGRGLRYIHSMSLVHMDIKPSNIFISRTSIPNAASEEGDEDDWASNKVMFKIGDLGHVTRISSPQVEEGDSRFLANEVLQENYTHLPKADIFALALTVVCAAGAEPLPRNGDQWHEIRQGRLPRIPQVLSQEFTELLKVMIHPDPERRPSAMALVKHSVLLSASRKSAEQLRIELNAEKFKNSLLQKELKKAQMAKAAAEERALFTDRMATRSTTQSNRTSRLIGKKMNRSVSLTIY", "test": "Inhibition of recombinant human Wee1 (214 to end residues) at 1 uM using LSNLYHQGKFLQTFCGSPLYRRR as substrate after 40 mins in presence of [gamma-33P]ATP by scintillation counting method"}, "[6]": {"target": "Ephrin type-A receptor 5 (Homo sapiens) (UniProt P54756)", "test": "Inhibition of recombinant human EPHA5 (655 to 956 residues) at 1 uM using poly(Glu,Tyr) 4:1 as substrate after 40 mins in presence of [gamma-33P]ATP by scintillation counting method"}, "[7]": {"tested_on": "Tyrosine-protein kinase ABL1 (Homo sapiens), P00519 [T315I]", "test": "Inhibition of recombinant human Abl T315I mutant (27 to end residues) at 1 uM using EAIYAAPFAKKK as substrate after 40 mins in presence of [gamma-33P]ATP by scintillation counting method"}, "[8]": {"target": "Calcium/calmodulin-dependent protein kinase type II subunit gamma (Homo sapiens) (UniProt Q13555)", "sequence (Q13555 whole entry, the tested form may be a part)": "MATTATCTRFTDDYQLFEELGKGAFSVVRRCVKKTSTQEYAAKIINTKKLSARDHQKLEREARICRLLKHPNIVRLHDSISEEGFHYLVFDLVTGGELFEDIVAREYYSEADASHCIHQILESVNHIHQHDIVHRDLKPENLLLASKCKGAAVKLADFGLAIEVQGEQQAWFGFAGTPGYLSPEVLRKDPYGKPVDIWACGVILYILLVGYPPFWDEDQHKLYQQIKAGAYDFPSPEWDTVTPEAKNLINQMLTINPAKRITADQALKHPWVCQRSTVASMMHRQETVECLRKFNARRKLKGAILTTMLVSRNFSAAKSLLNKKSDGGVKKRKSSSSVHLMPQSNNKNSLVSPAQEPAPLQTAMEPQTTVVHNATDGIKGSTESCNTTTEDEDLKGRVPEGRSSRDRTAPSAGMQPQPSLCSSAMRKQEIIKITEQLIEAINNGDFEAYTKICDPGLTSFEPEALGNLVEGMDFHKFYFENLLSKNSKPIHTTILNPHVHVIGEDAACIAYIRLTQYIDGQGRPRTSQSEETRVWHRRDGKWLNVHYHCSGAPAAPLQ", "test": "Inhibition of recombinant human CAMK2gamma (1 to 330 residues) at 1 uM using […] after 40 mins in presence of [gamma-33P]ATP by scintillation counting method"}, "[9]": {"target": "Epithelial discoidin domain-containing receptor 1 (Homo sapiens) (UniProt Q08345)", "test": "Inhibition of recombinant human DDR1 (492 to end residues) at 1 uM using KKKSPGEYVNIEFG as substrate after 40 mins in presence of [gamma-33P]ATP by scintillation counting method"}, "[10]": {"target": "Serine/threonine-protein kinase Chk2 (Homo sapiens) (UniProt O96017)", "test": "Inhibition of recombinant human CHK2 (5 to end residues) at 1 uM using KKKVSRSGLYRSPSMPENLNRPR as substrate after 40 mins in presence of [gamma-33P]ATP by scintillation counting method"}, "[11]": {"target": "Death-associated protein kinase 1 (Homo sapiens) (UniProt P53355)", "sequence (P53355 whole entry, looked up, the tested form may be a part)": "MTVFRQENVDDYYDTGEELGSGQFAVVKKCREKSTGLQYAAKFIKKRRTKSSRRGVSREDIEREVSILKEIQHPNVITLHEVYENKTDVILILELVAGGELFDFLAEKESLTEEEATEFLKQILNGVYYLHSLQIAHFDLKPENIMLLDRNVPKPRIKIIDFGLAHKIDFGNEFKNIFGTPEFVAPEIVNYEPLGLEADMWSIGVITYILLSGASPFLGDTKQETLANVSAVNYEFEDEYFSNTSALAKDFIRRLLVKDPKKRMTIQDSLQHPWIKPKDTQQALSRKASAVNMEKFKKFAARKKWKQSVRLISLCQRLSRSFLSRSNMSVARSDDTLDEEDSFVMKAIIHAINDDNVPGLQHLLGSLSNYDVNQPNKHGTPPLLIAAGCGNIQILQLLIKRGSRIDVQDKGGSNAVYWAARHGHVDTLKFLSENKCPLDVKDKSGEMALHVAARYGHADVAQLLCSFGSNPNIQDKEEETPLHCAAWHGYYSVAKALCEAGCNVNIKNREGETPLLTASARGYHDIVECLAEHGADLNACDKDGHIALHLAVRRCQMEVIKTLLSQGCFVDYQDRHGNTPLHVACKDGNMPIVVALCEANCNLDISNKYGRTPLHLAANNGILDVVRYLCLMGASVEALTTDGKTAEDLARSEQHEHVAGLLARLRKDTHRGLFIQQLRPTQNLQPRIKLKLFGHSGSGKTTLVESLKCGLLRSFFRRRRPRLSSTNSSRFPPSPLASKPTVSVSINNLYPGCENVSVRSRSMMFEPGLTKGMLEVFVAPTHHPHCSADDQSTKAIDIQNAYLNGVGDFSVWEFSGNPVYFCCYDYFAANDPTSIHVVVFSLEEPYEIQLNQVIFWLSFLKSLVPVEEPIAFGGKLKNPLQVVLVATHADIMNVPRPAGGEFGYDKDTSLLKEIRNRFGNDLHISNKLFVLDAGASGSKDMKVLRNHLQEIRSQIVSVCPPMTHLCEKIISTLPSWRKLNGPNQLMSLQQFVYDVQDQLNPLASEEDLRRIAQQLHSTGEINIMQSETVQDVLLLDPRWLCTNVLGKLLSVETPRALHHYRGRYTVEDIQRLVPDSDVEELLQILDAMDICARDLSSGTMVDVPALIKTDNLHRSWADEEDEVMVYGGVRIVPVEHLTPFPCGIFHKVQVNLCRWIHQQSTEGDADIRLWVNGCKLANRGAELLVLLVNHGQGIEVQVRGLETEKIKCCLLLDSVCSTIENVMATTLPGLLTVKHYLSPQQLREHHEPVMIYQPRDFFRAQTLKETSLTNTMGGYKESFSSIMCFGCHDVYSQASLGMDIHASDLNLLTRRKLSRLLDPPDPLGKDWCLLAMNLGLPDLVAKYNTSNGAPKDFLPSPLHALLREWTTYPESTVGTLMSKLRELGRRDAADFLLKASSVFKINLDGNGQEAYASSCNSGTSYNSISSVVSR", "test": "Inhibition of recombinant human DAPK1 (1 to 296 residues) at 1 uM using KKLNRTLSFAEPG as substrate after 40 mins in presence of [gamma-33P]ATP by scintillation counting method"}, "[12]": {"target": "Serine/threonine-protein kinase 17A (Homo sapiens) (UniProt Q9UEE5)", "test": "Inhibition of recombinant full-length human DRAK1 at 1 uM using KKLNRTLSFAEPG as substrate after 40 mins in presence of [gamma-33P]ATP by scintillation counting method"}, "[13]": {"target": "Calcium/calmodulin-dependent protein kinase type II subunit delta (Homo sapiens) (UniProt Q13557)", "test": "Inhibition of recombinant full-length human CAMK2delta at 1 uM using […] after 40 mins in presence of [gamma-33P]ATP by scintillation counting method"}, "[14]": {"target": "Ephrin type-A receptor 8 (Homo sapiens) (UniProt P29322)", "test": "Inhibition of recombinant human EPHA8 (615 to 911 residues) at 1 uM using KTFCGTPEYLAPEVRREPRILSEEEQEMFRDFDYIADWC as substrate after 40 mins in presence of [gamma-33P]ATP by scintillation counting method"}, "[15]": {"target": "Phosphatidylinositol 3-kinase C2 domain-containing subunit gamma (Homo sapiens) (UniProt O75747)", "test": "Inhibition of recombinant human PI3KC2gamma (468 to 1203 residues) at 1 uM phosphatidylinositol/phosphatidylserine as substrate after 40 mins in presence of [gamma-33P]ATP by scintillation counting method"}, "[16]": {"target": "Serine/threonine-protein kinase D3 (Homo sapiens) (UniProt O94806)", "test": "Inhibition of recombinant full-length human PKD3 at 1 uM using KKLRRTLSVA as substrate after 40 mins in presence of [gamma-33P]ATP by scintillation counting method"}, "[17]": {"target": "Serine/threonine-protein kinase D2 (Homo sapiens) (UniProt Q9BZL6)", "test": "Inhibition of recombinant full-length human PKD2 at 1 uM using KKLNRTLSVA as substrate after 40 mins in presence of [gamma-33P]ATP by scintillation counting method"}, "[18]": {"target": "Mast/stem cell growth factor receptor Kit (Homo sapiens) (UniProt P10721)", "test": "Inhibition of recombinant human cKit (544 to end residues) at 1 uM using poly(Glu,Tyr) 4:1 as substrate after 40 mins in presence of [gamma-33P]ATP by scintillation counting method"}, "[19]": {"target": "Mitogen-activated protein kinase 12 (Homo sapiens) (UniProt P53778)", "test": "Inhibition of recombinant full-length human SAPK3 at 1 uM using myelin basic protein as substrate after 40 mins in presence of [gamma-33P]ATP by scintillation counting method"}, "[20]": {"target": "Casein kinase I isoform delta (Homo sapiens) (UniProt P48730)", "test": "Inhibition of recombinant human CK1delta (1 to 294 residues) at 1 uM using KRRRALS(p)VASLPGL as substrate after 40 mins in presence of [gamma-33P]ATP by scintillation counting method"}, "[21]": {"target": "Serine/threonine-protein kinase BRSK2 (Homo sapiens) (UniProt Q8IWQ3)", "test": "Inhibition of recombinant human BrSK2 (2 to end residues) at 1 uM using KKLNRTLSFAEPG as substrate after 40 mins in presence of [gamma-33P]ATP by scintillation counting method"}, "[22]": {"target": "Tyrosine-protein kinase TXK (Homo sapiens) (UniProt P42681)", "sequence (P42681 whole entry)": "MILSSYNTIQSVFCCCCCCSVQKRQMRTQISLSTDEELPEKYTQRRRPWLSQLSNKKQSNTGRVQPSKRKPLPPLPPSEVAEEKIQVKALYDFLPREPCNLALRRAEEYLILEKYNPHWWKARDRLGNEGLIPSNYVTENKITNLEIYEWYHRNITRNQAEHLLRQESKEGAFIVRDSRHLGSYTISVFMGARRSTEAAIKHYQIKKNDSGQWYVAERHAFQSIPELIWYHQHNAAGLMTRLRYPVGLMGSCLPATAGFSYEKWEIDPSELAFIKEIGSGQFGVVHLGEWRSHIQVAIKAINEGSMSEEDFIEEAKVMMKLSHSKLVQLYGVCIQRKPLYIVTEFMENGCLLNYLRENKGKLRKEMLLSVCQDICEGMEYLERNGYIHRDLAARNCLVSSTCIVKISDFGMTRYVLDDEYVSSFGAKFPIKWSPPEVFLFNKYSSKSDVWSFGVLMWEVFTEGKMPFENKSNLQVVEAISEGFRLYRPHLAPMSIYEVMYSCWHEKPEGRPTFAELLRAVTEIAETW", "test": "Inhibition of recombinant human Txk (256 to end residues) at 1 uM using GEEPLYWSFPAKKK as substrate after 40 mins in presence of [gamma-33P]ATP by scintillation counting method"}, "[23]": {"tested_on": "Mus musculus", "test": "Clearance in mouse at 2 mg/kg, iv or 10 mg/kg, po", "format": "ADME, organism-based", "details": "in vivo"}, "[24]": {"target": "Serine/threonine-protein kinase N1 (Homo sapiens) (UniProt Q16512)", "sequence (Q16512 2-942 limits assumed)": "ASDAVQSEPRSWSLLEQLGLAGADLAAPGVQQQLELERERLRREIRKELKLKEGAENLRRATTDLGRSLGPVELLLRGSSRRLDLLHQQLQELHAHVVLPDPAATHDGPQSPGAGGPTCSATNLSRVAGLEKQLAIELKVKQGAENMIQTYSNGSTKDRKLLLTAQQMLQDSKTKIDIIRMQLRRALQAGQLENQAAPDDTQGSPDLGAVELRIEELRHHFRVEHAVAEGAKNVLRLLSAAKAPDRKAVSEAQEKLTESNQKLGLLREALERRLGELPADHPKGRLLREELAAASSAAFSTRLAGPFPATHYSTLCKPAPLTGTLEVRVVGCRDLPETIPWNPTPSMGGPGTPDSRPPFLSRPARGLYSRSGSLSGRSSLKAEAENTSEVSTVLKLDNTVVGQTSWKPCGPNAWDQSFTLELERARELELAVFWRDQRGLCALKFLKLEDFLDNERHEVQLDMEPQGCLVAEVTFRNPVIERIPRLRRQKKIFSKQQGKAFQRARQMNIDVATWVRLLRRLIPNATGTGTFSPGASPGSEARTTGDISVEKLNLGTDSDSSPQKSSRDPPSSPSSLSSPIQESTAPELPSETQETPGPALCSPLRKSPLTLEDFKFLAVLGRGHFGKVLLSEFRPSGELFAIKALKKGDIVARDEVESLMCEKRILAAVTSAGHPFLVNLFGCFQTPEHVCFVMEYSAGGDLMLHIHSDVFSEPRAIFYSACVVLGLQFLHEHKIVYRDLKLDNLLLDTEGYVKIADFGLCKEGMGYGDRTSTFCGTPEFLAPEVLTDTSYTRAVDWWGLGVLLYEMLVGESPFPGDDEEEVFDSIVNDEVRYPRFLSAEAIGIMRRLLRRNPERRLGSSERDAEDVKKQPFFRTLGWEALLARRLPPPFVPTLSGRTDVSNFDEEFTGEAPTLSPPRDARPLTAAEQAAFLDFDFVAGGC", "test": "Inhibition of recombinant human PRK1 (498 to end residues) at 1 uM using KKLNRTLSFAEPG as substrate after 40 mins in presence of [gamma-33P]ATP by scintillation counting method"}}, "data": [{"smiles": "CS(=O)(=O)c1ccc(-n2nc(-c3cnc4[nH]ccc4c3)c3c(N)ncnc32)cc1", "values": [{"measurement": "inhibition", "setting": "[1]", "value": -2, "unit": "%"}, {"measurement": "inhibition", "setting": "[2]", "value": -8, "unit": "%"}, {"measurement": "inhibition", "setting": "[3]", "value": 93, "unit": "%"}, {"measurement": "inhibition", "setting": "[4]", "value": 2, "unit": "%"}, {"measurement": "inhibition", "setting": "[5]", "value": 1, "unit": "%"}, {"measurement": "inhibition", "setting": "[6]", "value": 8, "unit": "%"}, {"measurement": "inhibition", "setting": "[7]", "value": 13, "unit": "%"}, {"measurement": "inhibition", "setting": "[8]", "value": 6, "unit": "%"}, {"measurement": "inhibition", "setting": "[9]", "value": 92, "unit": "%"}, {"measurement": "inhibition", "setting": "[10]", "value": -3, "unit": "%"}, {"measurement": "inhibition", "setting": "[11]", "value": -2, "unit": "%"}, {"measurement": "inhibition", "setting": "[12]", "value": 31, "unit": "%"}, {"measurement": "inhibition", "setting": "[13]", "value": 3, "unit": "%"}, {"measurement": "inhibition", "setting": "[14]", "value": 15, "unit": "%"}, {"measurement": "inhibition", "setting": "[15]", "value": 15, "unit": "%"}, {"measurement": "inhibition", "setting": "[16]", "value": 10, "unit": "%"}, {"measurement": "inhibition", "setting": "[17]", "value": 17, "unit": "%"}, {"measurement": "inhibition", "setting": "[18]", "value": 4, "unit": "%"}, {"measurement": "inhibition", "setting": "[19]", "value": 2, "unit": "%"}, {"measurement": "inhibition", "setting": "[20]", "value": 66, "unit": "%"}, {"measurement": "inhibition", "setting": "[21]", "value": 3, "unit": "%"}, {"measurement": "inhibition", "setting": "[22]", "value": 78, "unit": "%"}, {"measurement": "CL", "setting": "[23]", "value": 22.2, "unit": "mL/min/kg"}, {"measurement": "inhibition", "setting": "[24]", "value": -1, "unit": "%"}]}]}
